Source: patent US7635696B2, “Isoxazoline-indole derivatives with an improved antipsychotic and anxiolytic activity” (Janssen Pharmaceutica N.V., priority 2004, dated 2009)
Like-named read-outs stand apart in the source and are kept apart here.

Assays:
[1] = biological target: T1, Human 5HT1A receptor (Homo sapiens, UniProt P08908); experiment: Binding experiment for 5-HT1A receptor ([3H]8OHDPAT)
T1 construct: expressed in transfected cells; host or cells: L929 cells (stably transfected)
T1 sequence (P08908 1-422): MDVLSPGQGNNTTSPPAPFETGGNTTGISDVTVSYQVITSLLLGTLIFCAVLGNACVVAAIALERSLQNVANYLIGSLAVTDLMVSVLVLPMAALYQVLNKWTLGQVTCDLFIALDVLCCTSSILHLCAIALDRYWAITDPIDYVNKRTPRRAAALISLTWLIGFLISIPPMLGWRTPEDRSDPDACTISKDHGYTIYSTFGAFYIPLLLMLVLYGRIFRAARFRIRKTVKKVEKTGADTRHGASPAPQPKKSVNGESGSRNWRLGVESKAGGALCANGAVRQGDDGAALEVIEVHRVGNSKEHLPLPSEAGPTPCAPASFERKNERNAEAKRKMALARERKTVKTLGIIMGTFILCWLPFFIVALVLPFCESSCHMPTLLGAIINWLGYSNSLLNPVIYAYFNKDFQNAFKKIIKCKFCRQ
Protocol: (§1) The interaction of the compounds of Formula (I) with dopamine-receptors, h5HT-transporter and h5HT1A receptor was assessed in in vitro radioligand binding experiments. In general, a low concentration of a radioligand with a high binding affinity for a particular receptor or transporter is incubated with a sample of a tissue preparation enriched in a particular receptor or transporter or with a preparation of cells expressing cloned human receptors in a buffered medium. During the incubation, the radioligand binds to the receptor or transporter. When equilibrium of binding is reached, the receptor bound radioactivity is separated from the non-bound radioactivity, and the receptor- or transporter-bound activity is counted. The interaction of the test compounds with the receptor is assessed in competition binding experiments. Various concentrations of the test compound are added to the incubation mixture containing the receptor- or transporter preparation and the radioligand. The test compound in proportion to its binding affinity and its concentration inhibits binding of the radioligand.
Human 5HT1A receptor-transfected L929 cells were collected by scraping into ice-cold Tris-HCl buffer (50 mM, pH 7.4). The suspension was centrifuged (23 500×g, 10 min, 4° C.) and pellets stored at −70° C. until required. They were then thawed and briefly homogenised using an Ultra-Turrax T25 homogeniser prior to dilution to an appropriate protein concentration optimised for specific and non-specific binding. [^3H]80HDPAT (NEN, specific activity 127 Ci/mmol) was diluted in Tris-HCl assay buffer containing CaCl2 (50 mM and 4 mM, respectively; pH 7.7) at a concentration of 5 nmol/L. Prepared radioligand (50 μl) was then incubated (30 min, 37° C.) with membrane preparations from L929 cells stably-transfected with the h5HT1A gene construct (400 μl) and with 50 μl of either the 10% DMSO control, spiroxatrine (10^−6 mol/L final concentration), or compound of interest. Membrane-bound activity was detected by filtration through a Packard Filtermate harvester onto Unifilterplates, washing with ice-cold Tris-HCl buffer (3×4 ml), followed by drying. Scintillation fluid was added and membranes were counted in a Topcount scintillation counter. % Specific bound and competition binding curves were calculated using S-Plus software (Insightful).

[2] = biological target: T2, Human Dopamine D2L receptor (Homo sapiens, UniProt P14416); experiment: Binding experiment for dopamine D2 receptor ([3H]Spiperone); settings: D2L-transfected CHO cell membranes; for IC50: read-out: pIC50 D2 (converted)
T2 construct: expressed in transfected cells; host or cells: CHO cells
T2 sequence (P14416 whole entry): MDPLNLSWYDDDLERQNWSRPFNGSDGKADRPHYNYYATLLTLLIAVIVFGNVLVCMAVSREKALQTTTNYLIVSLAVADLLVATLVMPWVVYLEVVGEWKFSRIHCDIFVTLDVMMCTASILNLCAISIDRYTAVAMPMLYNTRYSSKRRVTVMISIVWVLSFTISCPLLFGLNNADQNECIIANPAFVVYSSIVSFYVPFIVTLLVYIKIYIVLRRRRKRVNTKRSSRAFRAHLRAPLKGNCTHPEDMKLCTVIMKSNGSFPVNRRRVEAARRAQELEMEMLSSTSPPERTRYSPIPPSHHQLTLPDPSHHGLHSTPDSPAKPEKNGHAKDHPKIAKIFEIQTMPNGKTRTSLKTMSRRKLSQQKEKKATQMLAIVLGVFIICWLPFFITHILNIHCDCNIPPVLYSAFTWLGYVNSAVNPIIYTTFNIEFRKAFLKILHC
Protocol: as §1
Human Dopamine D2L receptor-transfected CHO cells were collected by scraping into ice-cold Tris-HCl buffer (50 mM, pH 7.4). The suspension was centrifuged (23 500×g, 10 min, 4° C.) and pellets stored at −70° C. until required. They were then thawed and briefly homogenised using an Ultra-Turrax T25 homogeniser prior to dilution to an appropriate protein concentration optimised for specific and non-specific binding. [^3H]Spiperone (NEN, specific activity ˜70 Ci/mmol) was diluted in Tris-HCl assay buffer containing NaCl, CaCl2, MgCl2, KCl (50, 120, 2, 1, and 5 mM respectively, adjusted to pH 7.7 with HCl) at a concentration of 2 nmol/L. Prepared radioligand (50 μl) was then incubated (30 min, 37° C.) with membrane preparations pre-diluted to an appropriate protein concentration (400 μl), and with 50 μl of either the 10% DMSO control, Butaclamol (10^−6 mol/L final concentration), or compound of interest. Membrane-bound activity was detected by filtration through a Packard Filtermate harvester onto Unifilterplates, washing with ice-cold Tris-HCl buffer (50 mM; pH8.0; 3×4 ml). Filters were allowed to dry before adding scintillation fluid and counting in a Topcount scintillation counter. % Specific bound and competition binding curves were calculated using S-Plus software (Insightful).

[3] = biological target: T3, human 5HT transporter (Homo sapiens, UniProt P31645); experiment: Binding experiment for 5-HT transporter ([3H]Paroxetine)
T3 construct: host or cells: HEK cells
T3 sequence (P31645 whole entry): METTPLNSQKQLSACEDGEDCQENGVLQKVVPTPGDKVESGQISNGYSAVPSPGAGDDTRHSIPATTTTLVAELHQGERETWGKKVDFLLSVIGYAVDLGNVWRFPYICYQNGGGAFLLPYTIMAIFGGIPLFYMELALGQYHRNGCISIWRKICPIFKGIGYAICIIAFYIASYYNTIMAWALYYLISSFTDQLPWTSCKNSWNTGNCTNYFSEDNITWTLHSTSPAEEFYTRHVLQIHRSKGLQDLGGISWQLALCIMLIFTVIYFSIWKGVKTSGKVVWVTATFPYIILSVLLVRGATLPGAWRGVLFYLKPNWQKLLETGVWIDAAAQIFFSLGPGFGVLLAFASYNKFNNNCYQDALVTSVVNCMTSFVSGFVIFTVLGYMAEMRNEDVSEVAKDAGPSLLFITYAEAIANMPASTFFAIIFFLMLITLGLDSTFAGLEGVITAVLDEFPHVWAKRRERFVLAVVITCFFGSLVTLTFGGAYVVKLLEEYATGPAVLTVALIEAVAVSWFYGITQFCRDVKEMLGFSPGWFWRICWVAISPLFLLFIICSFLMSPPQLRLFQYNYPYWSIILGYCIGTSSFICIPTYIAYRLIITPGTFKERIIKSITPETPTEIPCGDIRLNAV
Protocol: as §1
Frozen human 5HT transporter-transfected HEK cells (Perkin Elmer, Brussels) were thawed and briefly homogenised using an Ultra-Turrax T25 homogeniser prior to dilution to an appropriate protein concentration optimised for specific and non-specific binding. [^3H]Paroxetine (NEN, specific activity 20 Ci/mmol) was diluted in Tris-HCl assay buffer containing NaCl and KCl (50 mM, 120 mM and 5 mM, respectively; pH 7.4) at a concentration of 5 nmol/L. Prepared radioligand (25 μl) was then incubated (60 min, 25° C.) with membrane preparations (200 μl) and with 25 μl of either 10% DMSO control, Inipramine (10^−6 mol/L final concentration), or compound of interest. Membrane-bound activity was detected by filtration through a Packard Filtermate harvester onto Unifilterplates pre-soaked in 0.1% PEI, washing with ice-cold assay buffer (3×4 ml). Filters were dried prior to addition of scintillation fluid and then counting in a Topcount scintillation counter. % Specific bound and competition binding curves were calculated using S-Plus software (Insightful).

[4] = transfected L929 cell membranes, [3H]8OHDPAT, read-out: pIC50 5-HT1A (converted)
[5] = transfected HEK cell membranes, [3H]Paroxetine, read-out: pIC50 5HTT (converted)
[6] = transfected L929 cell membranes, [3H]8OHDPAT
[7] = transfected HEK cell membranes, [3H]Paroxetine

Compound: COc1ccc2[nH]cc(C3CCN(CC4ON=C5c6cc(OC)c(OC)cc6OCC54)CC3)c2c1 (racemic) [Compound 8]
- IC50 [1, 4]: 7.94 nM
- IC50 [2]: > 1000 nM
- IC50 [3, 5]: 1260 nM

Compound: CCNC(=O)Nc1ccc2[nH]cc(C3=CCN(CC4ON=C5c6cc(OC)c(OC)cc6OCC54)CC3)c2c1 (racemic) [Compound 37]
- IC50 [1, 4]: 7.94 nM
- IC50 [2]: > 10000 nM
- IC50 [3, 5]: > 10000 nM

Compound: COc1cc2c(cc1OC)C1=NOC(CN3CC=C(c4c[nH]c5ccc(NC(=O)Nc6ccccc6)cc45)CC3)C1CO2 (racemic) [Compound 38]
- pIC50 5-HT1A [1, 6]: 8.4
- pIC50 D2 [2]: <5
- pIC50 5HTT [3, 7]: <5

Compound: CCOC(=O)CNC(=O)Nc1ccc2[nH]cc(C3=CCN(CC4ON=C5c6cc(OC)c(OC)cc6OCC54)CC3)c2c1 (racemic) [Compound 39]
- pIC50 5-HT1A [1, 6]: 7.8
- pIC50 D2 [2]: <5
- pIC50 5HTT [3, 7]: <5

Compound: COc1cc2c(cc1OC)C1=NOC(CN3CC=C(c4c[nH]c5ccc(NC(C)=O)cc45)CC3)C1CO2 (racemic) [Compound 40]
- IC50 [1, 4]: 3.16 nM
- IC50 [2]: > 10000 nM
- IC50 [3, 5]: > 10000 nM

Compound: COCC(=O)Nc1ccc2[nH]cc(C3=CCN(CC4ON=C5c6cc(OC)c(OC)cc6OCC54)CC3)c2c1 (racemic) [Compound 41]
- pIC50 5-HT1A [1, 6]: 8.3
- pIC50 D2 [2]: <5
- pIC50 5HTT [3, 7]: <5

Compound: CCOC(=O)C(=O)Nc1ccc2[nH]cc(C3=CCN(CC4ON=C5c6cc(OC)c(OC)cc6OCC54)CC3)c2c1 (racemic) [Compound 42]
- pIC50 5-HT1A [1, 6]: 8.2
- pIC50 D2 [2]: <5
- pIC50 5HTT [3, 7]: <5.5

Compound: COc1cc2c(cc1OC)C1=NOC(CN3CC=C(c4c[nH]c5ccc(NS(C)(=O)=O)cc45)CC3)C1CO2.O=C(O)C(F)(F)F (racemic) [Compound 43]
- pIC50 5-HT1A [1, 6]: 8.7
- pIC50 D2 [2]: 6.0
- pIC50 5HTT [3, 7]: <5

Compound: COc1cc2c(cc1OCCO)OCC1C2=NOC1CN1CCC(c2c[nH]c3ccc(F)cc23)CC1 (racemic) [Compound 47]
- IC50 [2]: 100 nM
- IC50 [3, 5]: 398 nM

Compound: COc1cc2c(cc1OCCOC(C)=O)OCC1C2=NOC1CN1CCC(c2c[nH]c3ccc(F)cc23)CC1 (racemic) [Compound 48]
- IC50 [1, 4]: 1.58 nM
- IC50 [2]: 158 nM
- IC50 [3, 5]: 79.4 nM

Compound: COCC(=O)OCCOc1cc2c(cc1OC)C1=NOC(CN3CCC(c4c[nH]c5ccc(F)cc45)CC3)C1CO2 (racemic) [Compound 49]
- pIC50 D2 [2]: 6.7
- pIC50 5HTT [3, 7]: 6.9

Compound: CCNC(=O)OCCOc1cc2c(cc1OC)C1=NOC(CN3CCC(c4c[nH]c5ccc(F)cc45)CC3)C1CO2 (racemic) [Compound 50]
- pIC50 5-HT1A [1, 6]: 8.6
- pIC50 D2 [2]: 6.8
- pIC50 5HTT [3, 7]: 6.9

Compound: Fc1ccc2c(C3CCN(CC4ON=C5c6ccc(NCCN7CCCC7)cc6OCC54)CC3)c[nH]c2c1 (racemic) [Compound 51]
- pIC50 5-HT1A [1, 6]: 7.7
- pIC50 D2 [2]: 7.9
- pIC50 5HTT [3, 7]: 8.2

Compound: Fc1ccc2c(C3CCN(CC4ON=C5c6ccc(N7CCOCC7)cc6OCC54)CC3)c[nH]c2c1 (racemic) [Compound 52]
- pIC50 5-HT1A [1, 6]: 7.5
- pIC50 D2 [2]: 7.5
- pIC50 5HTT [3, 7]: 7.4

Compound: COc1cc2c(cc1OC)C1=NOC(CN3CCC(c4c[nH]c5ccc(Br)cc45)CC3)C1CO2 (racemic) [Compound 53]
- pIC50 D2 [2]: 6.7
- pIC50 5HTT [3, 7]: 6.4

Compound: COc1cc2c(cc1OC)C1=NOC(CN3CCC(c4c[nH]c5ccc(O)cc45)CC3)C1CO2 (racemic) [Compound 54]
- IC50 [2]: 398 nM
- IC50 [3, 5]: 63.1 nM

Compound: Fc1ccc2[nH]cc(C3=CCN(CC4ON=C5c6ccc(N7CCOCC7)cc6OCC54)CC3)c2c1 (racemic) [Compound 55]
- pIC50 5-HT1A [1, 6]: 7.8
- pIC50 D2 [2]: 6.3
- pIC50 5HTT [3, 7]: 7.5

Compound: Fc1ccc2[nH]cc(C3=CCN(CC4ON=C5c6ccc(NCCN7CCCC7)cc6OCC54)CC3)c2c1 (racemic) [Compound 56]
- pIC50 5-HT1A [1, 6]: 8.1
- pIC50 D2 [2]: 6.8
- pIC50 5HTT [3, 7]: 8.1

Compound: COc1cc2c(cc1OC)C1=NOC(CN3CCC(Cc4c[nH]c5ccc(F)cc45)CC3)C1CO2 (racemic) [Compound 57]
- pIC50 5-HT1A [1, 6]: 6.4
- pIC50 D2 [2]: 6.3
- pIC50 5HTT [3, 7]: 8.3

Compound: COc1cc2c(cc1OC)C1=NO[C@@H](CN3CCC(n4ccc5ccccc54)CC3)[C@@H]1CO2 (racemic) [Compound 58]
- IC50 [1]: 25.1 nM
- IC50 [2]: 501 nM
- IC50 [3, 5]: 631 nM

Compound: Nc1ccc2c(c1)OCC1C2=NOC1CN1CC=C(c2c[nH]c3ccc(F)cc23)CC1 (racemic) [Compound 61]
- pIC50 5-HT1A [1, 6]: 7.3
- pIC50 5HTT [3, 7]: 6.9

Compound: COCCOCOc1cc2c(cc1OC)C1=NOC(CN3CC=C(c4c[nH]c5ccc(F)cc45)CC3)C1CO2 (racemic) [Compound 63]
- pIC50 5-HT1A [1, 6]: 6.0
- pIC50 D2 [2]: 7.9
- pIC50 5HTT [3, 7]: 7.6

Compound: COc1cc2c(cc1OC)C1=NO[C@@H](CN3CC=C(c4cn(C)c5ccccc45)CC3)[C@@H]1CO2 (single isomer, unassigned) [Compound 34]
- IC50 [1]: 20 nM
- IC50 [2]: 2000 nM
- IC50 [3]: 63.1 nM

Compound: COc1cc2c(cc1OC)C1=NOC(CN3CCC(c4c[nH]c5cc(F)ccc45)CC3)C1CO2 (single isomer, unassigned) [Compound 35]
- pIC50 5-HT1A [1, 6]: 6.4
- pIC50 D2 [2]: 6.9
- pIC50 5HTT [3, 7]: 7.3

Compound: COc1cc2c(cc1OC)C1=NOC(CN3CCC(c4c[nH]c5cc(F)ccc45)CC3)C1CO2 (single isomer, unassigned) [Compound 36]
- pIC50 5-HT1A [1, 6]: 8.0
- pIC50 D2 [2]: 7.5
- pIC50 5HTT [3, 7]: 6.8

Compound: COc1cc2c(cc1OC)C1=NOC(CN3CCC(c4c[nH]c5ccccc45)CC3)C1CO2.O=C(O)C(=O)O (single isomer, unassigned) [Compound 45]
- pIC50 5-HT1A [1, 6]: 7.0
- pIC50 D2 [2]: 6.3
- pIC50 5HTT [3, 7]: 6.9

Compound: COc1cc2c(cc1OC)C1=NOC(CN3CC=C(c4c[nH]c5ccc(N)cc45)CC3)C1CO2 (stereo not drawn) [Compound 33]
- IC50 [1, 4]: 12.6 nM
- IC50 [2]: 1260 nM
- IC50 [3, 5]: 631 nM

Compound: CC(=O)Nc1ccc2c(c1)OCC1C2=NOC1CN1CCC(c2c[nH]c3ccc(F)cc23)CC1 (stereo not drawn) [Compound 46]
- IC50 [2]: 316 nM
- IC50 [3, 5]: 50.1 nM

Compound: COc1cc2c(cc1OC)C1=NOC(CN3CCC(c4coc5cc(F)ccc45)CC3)C1CO2 (stereo not drawn) [Compound 59]
- IC50 [1, 4]: 15.8 nM
- IC50 [2]: 100 nM
- IC50 [3, 5]: 79.4 nM
